The values that follow come from patent publication US20080107603A1, “Neuroprotectant methods, compositions, and screening methods thereof” (priority 2002, published 2008).

Structures are written as SMILES.

The conditions of series [1]: Man; cited from earlier work.
A further series deals with PC12 cells. Description: TUNEL, Aβ25-35-induced apoptosis. The series is classed as cell-based, Rat. The conditions noted are these: 25 μM Aβ25-35, 36 h; EGT at 0.5 mM or 1 mM. On the procedure:
The commercially available in situ death detection kit (Boehringer Mannheim product, Manheim, Germany) was utilized to detect DNA fragmentation. The PC12 cells (5×10^5 cells/1.5 ml in chamber slide) were fixed for 30 min in 10% neutral buffered-formalin solution at room temperature. Endogenous peroxidase was inactivated by incubation with 0.3% (v/v) hydrogen peroxide in methanol for 30 min at room temperature and further incubated in a permeabilizing solution (0.1% sodium citrate and 0.1% Triton X-100) for 2 min at 4° C. The cells were labeled by incubation with the TUNEL reaction mixture for 60 min at 37° C. followed by labeling with peroxidase-conjugated anti-fluorescein anti-goat antibody (Fab fragment) for additional 30 min. After staining with diaminobenzidine for 10 min, cells were rinsed with phosphate-buffered saline (PBS) and mounted with 50% glycerol.

Another series relates to PARP. Description: Western blot, Aβ25-35-induced cleavage of PARP. The series is classed as cell-based, Rat. The conditions noted are these: 25 μM Aβ25-35, 36 h. The procedure:
After treatment, cells (1×10^7 cells/7 ml in 100φ dish) were collected and washed with PBS. After centrifugation, cell lysis was carried out at 4° C. by vigorous shaking for 15 min in RIPA buffer (150 mM NaCl, 1% NP-40, 0.5% sodium deoxycholate, 0.1% SDS, 50 mM Tris-HCl (pH 7.4), 50 mM glycerphosphate, 20 mM NaF, 20 mM EGTA, 1 mM DTT, 1 mM Na3VO4 and protease inhibitors). After centrifugation at 15,000 rpm for 15 min, supernatant was separated and stored at −70° C. until use. The protein concentration was determined by using the bicinchrinic acid (BCA) protein assay kit (Pierce, Rockford, Ill., USA). After addition of sample loading buffer, protein samples were electrophoresed on a 12.5% SDS-polyacrylamide gel. Proteins were transferred to polyvinylidene difluoride blots at 300 mA for 3 h. The blots were blocked for 1 h at room temperature in fresh blocking buffer (0.1% Tween-20 in Tris-buffered saline, pH 7.4 containing 5% non-fat dried milk). Dilutions (1:1000) of primary anti-poly(ADP-ribose)polymerase (PARP), anti-Bcl-XL and anti-Bax antibodies were made in PBS with 3% non-fat dry milk. Following three washes with PBST (PBS and 0.1% Tween-20), the blots were incubated with horseradish peroxidase-conjugated secondary antibodies in PBS with 3% non-fat dry milk for 1 h at room temperature. […]
On the technique in general: In western blotting, separated proteins are transferred to a membrane and probed.

For the next series, the system named is NF-κB. Put plainly: EMSA, Aβ25-35-induced NF-κB DNA binding activity. As to conditions: 25 μM Aβ25-35 for 1 h; EGT pretreatment (0.5 mM, 1 mM). It counts as cell-based, Rat. The procedure:
To explore the molecular mechanisms underlying the protective effect of L-ergothioneine against Aβ25-35-induced nitrosative cell death, the activation of NF-κB was assessed by EMSA using an oligonucleotide containing a consensus κB binding element. After treatment with 25 μM Aβ25-35 for 1 h in the absence or presence of L-ergothioneine, PC12 cells (1×10^7 cells/7 ml in 100φ dish) were washed with PBS, centrifuged, and resuspended in ice-cold isotonic buffer A [10 mM HEPES, pH 7.9, 1.5 mM MgCl2, 10 mM KCl, 0.5 mM dithiothreitol (DTT) and 0.2 mM phenylmethylsulfonyl fluoride (PMSF)]. Following incubation in an ice bath for 10 min, cells were centrifuged again and resuspended in ice-cold buffer C containing 20 mM HEPES (pH 7.9), 20% glycerol, 420 mM […], 1.5 mM MgCl2, 0.2 mM EDTA, 0.5 mM DTT and 0.2 mM PMSF followed by incubation at 0° C. for 20 min. After vortex-mixing, the resulting suspension was centrifuged, and the supernatant was stored at −70° C. for the NF-κB DNA binding assay. The protein concentration was determined by using the BCA protein assay kit.
Synthetic double strand oligonucleotide containing the NF-κB binding domain was labeled with [γ-^32P]ATP using T4 polynucleotide kinase and separated from unincorporated [γ-^32P]ATP by gel filtration using a nick spin column (Phamacia Biotech, Bjorkgatan, Sweden). […]
A general note: Mobility shift assays separate free from complexed probe on a gel.

With `C[N+](C)(C)[C@@H](Cc1c[nH]c(=S)[nH]1)C(=O)[O-]` [L-ergothioneine, 2-mercaptohistidine trimethylbetaine], the “L-Ergothioneine Concentration (mg/100 ml blood)” value in series [1] was 1-4 mg/100 ml blood. Also, the “proportion of TUNEL-positive cells” value in the series on PC12 cells is recorded as “lowered the proportion of TUNEL-positive cells”. Also, the “cleavage of PARP” value in the series on PARP is “inhibited”. Besides, in the series with NF-κB, the “NF-κB DNA binding” value is “inhibited”.
